Values of other authors, collected in patent US5559121A, “Rapamycin formulations for oral administration” (American Home Products Corporation, priority 1995, dated 1996).

What was measured:
[1] = FASEB 3, 3411 (1989) and others
allograft rejection = details: Calne 1989; Morris and Meiser 1989
tumor = details: U.S. Pat. No. 4,885,171 (alone); U.S. Pat. No. 4,401,653 (with picibanil)
[2] = test system: experimental allergic encephalomyelitis; details: Martel 1977
adjuvant arthritis = details: Martel 1977
IgE-like antibodies = details: Martel 1977
[3] = test system: insulin dependent diabetes mellitus; details: Fifth Int. Conf. Inflamm. Res. Assoc. 121 (1990)
[4] = test system: smooth muscle cell proliferation and intimal thickening; details: Morris 1992
thymocyte proliferation = details: in vitro
[5] = in vivo

SMILES | immunosuppressive effects [1] | effect on growth of Candida albicans (Candida albicans) | effect on growth of Microsporum gypseum (Microsporum gypseum) | inhibiting rejection in vivo in allograft transplantation (allograft rejection) | antitumor activity (tumor) | effectiveness in experimental allergic encephalomyelitis model [2] | effectiveness in adjuvant arthritis model (adjuvant arthritis) | inhibition of the formation of IgE-like antibodies (IgE-like antibodies) | preventing or treating insulin dependent diabetes mellitus [3] | preventing or treating smooth muscle cell proliferation and intimal thickening following vascular injury [4] | inhibition of thymocyte proliferation (thymocyte proliferation) | immunosuppressive, antifungal and antiinflammatory activity [5]
C=CC[C@@H]1/C=C(\C)C[C@H](C)C[C@H](OC)[C@H]2O[C@@](O)(C(=O)C(=O)N3CCCC[C@H]3C(=O)O[C@H](/C(C)=C/[C@@H]3CC[C@@H](O)[C@H](OC)C3)[C@H](C)[C@@H](O)CC1=O)[C@H](C)C[C@@H]2OC [FK-506] | effective as immunosuppressive agents |  |  |  |  |  |  |  |  |  |  | 
CO[C@H]1C[C@@H]2CC[C@@H](C)[C@@](O)(O2)C(=O)C(=O)N2CCCC[C@H]2C(=O)O[C@H]([C@H](C)C[C@@H]2CC[C@@H](O)[C@H](OC)C2)CC(=O)[C@H](C)/C=C(\C)[C@@H](O)[C@@H](OC)C(=O)[C@H](C)C[C@H](C)/C=C/C=C/C=C/1C [Rapamycin, rapamycin] | immunosuppressive effects | adversely affects the growth | adversely affects the growth | effectiveness of rapamycin in inhibiting rejection in vivo | antitumor activity | effective | effective | effectively inhibited the formation of IgE-like antibodies | useful in preventing or treating | useful in preventing or treating | inhibit thymocyte proliferation in vitro | immunosuppressive, antifungal and antiinflammatory activity in vivo
